In one test the test system is human cell lines. Briefly: Cytotoxicity under continuous drug exposure, mean over human cell lines. The settings on record: read-out: mean IC50 value for human cell lines. The test is classed as cell-based. The method, then:
The latter value compared with 2 µM for the 4-pyridyl-quinoline analogue, 0.76 µM for amsacrine, 0.1 µM for the amsacrine analogue 4'-(9-[4-[N-methylcarboxamido]-5-methyl]-acridinylamino)-methanesulphon-m-anisidide ("CI-921") and 81 µM for etoposide.

Test [1] relates to sublines of Jurkat leukaemia cells. As to the kind of experiment: Cross-resistance of Jurkat sublines selected for resistance to amsacrine. The test is classed as cell-based, human. The settings on record: two lines selected for resistance to amsacrine. The procedure: Two of these lines had been selected for resistance to amsacrine, and were more than 100-fold cross-resistant to amsacrine but only 2- to 4-fold cross-resistant to DACA. […] We believe that this ability to overcome resistance mechanisms accounts for the different IC50 patterns observed with the human cell line panels.
Tumour cell lines were cultured in 96-well plates. […] Primary cultures were incubated at 37°C in sealed perspex boxes containing a humidified atmosphere of 5% CO2 and 5% O2 in nitrogen for 7 days. 5-Methyl-[^3H]-thymidine (20 Ci.mmol^-1; 0.04 µCi per well), thymidine and 5-fluorodeoxyuridine (each at final concentrations of 0.5 µM) were added in medium to cultures (20 µl per well) 24 h before terminating the cultures.
1989, 81:1088-1092, where growth, as indicated by staining or thymidine incorporation, corresponded to 50% of that of the control cultures.

Test [2] has as its system advanced colon 38 tumours. Briefly: Tumour growth delay, advanced subcutaneous colon 38 tumours in mice. The test is classed as in vivo. The settings on record: maximum tolerated dose of the comparison drug. The method, then:
Colon 38 carcinoma was obtained from the Mason Research Institute (Worchester, MA, USA) and was grown in BDF1 hosts. Tumour fragments (1 mm^3) were implanted subcutaneously in anaesthetised mice. Tumours had grown to the appropriate size 9 days after implantation. A melanoma tumour line (WADH) was developed in the Cancer Research Laboratory. Tumour cells were grown in culture and 1 x 10^6 cells were implanted intradermally into the flank of nude (C57BI/J genetic background) mice. Mice were grown under sterile surroundings until tumours were of appropriate size.
Tumours were measured 3x (colon 38) or 2x (xeno-graft) weekly with callipers and tumour volumes calculated as 0.52a^2b, where a and b were the minor and major tumour axes. Tumour growth delays were measured at a time when tumour volumes of treated and control animals had increased by 4-fold.
The effects of five compounds, • (i) DACA • (ii) N-[2-(dimethylamino)ethyl]-9-methoxyphen-azine-1-carboxamide (compound 28 of J. Med. Chem., 1987, 30, 843-851), • (iii) N-[2-(dimethylamino) ethyl]-2-phenylquino-line-8-carboxamide (compound 6 of J. Med. Chem. 1988, 31, 1048-1052), • (iv) N-[2-(dimethylamino)ethyl]-2-(4-pyridyl)-guinoline-8-carboxamide (compound 18 of J. Med. Chem., 1989, 32, 396-401), and • (v) N-[2-(dimethylamino)ethyl]-9-bromo-dibenzo-[1,4]-dioxin-1-carboxamide (compound 20 of J. Med. Chem. 1992, 35, 258-266) on the growth of advanced colon 38 tumours in mice was investigated by implanting tumour fragments subcutaneously and allowing them to grow until they had reached a diameter of 5-8 mm.

Test [3] has as its system primary human melanoma cultures. Briefly: cells. The settings on record: Homo sapiens, read-out: mean IC50. The method, then: Acridine carboxamide hydrochloride, synthesised in the Cancer Research Laboratory (Atwell G.J., et al., J.Med. Chem. 1987, 30, 664-669), and amsacrine isethionate, obtained from the Parke-Davis Division of the Warner-Lambert Company, Ann Arbor, USA, were dissolved in 50% v/v aqueous ethanol to make stock solutions of 2-5 mmol/l and stored at -20°C. Other cytotoxic drugs were available either from the NCI repository (Monks A., et al., J. Natl. Cancer Inst. 1991, 83, 757-766) or were obtained as described in Marshall E.S., et al., J. Natl. Cancer Inst. 1992, 84, 341-344 and Finlay, et al., Eur. J. Cancer din. Oncol. 1986, 22, 655-662. Cell lines were from the NCI repository except for MM-96 (Dr. R. Whitehead, Ludwig Institute, Melbourne, Australia), FME (Dr. K.M. Tveit, Norwegian Radium Hospital, Oslo, Norway) and Jurkat normal and multidrug-resistant lines (Dr. K. Snow and Dr. W. Judd, Department of Cellular and Molecular Biology, University of Auckland). Melanoma tissue was obtained from patients with pathologically confirmed metastatic and recurrent melanomas under Auckland Hospital Ethical Committee guidelines. Cells were released by digestion of tissue (at 50 mg.ml^-1) with collagenase (1 mg.ml^-1) and DNAase (50 µg.ml^-1) with continuous stirring at 37°C for 1 to 2 hours, and cultured as previously described (Marshall E.S., et al., J. Natl. Cancer Inst. 1992, 84, 341-344).
(§1) Tumour cell lines were cultured in 96-well plates. Growth of NCI cell lines was assessed using sulpho-rhodamine B staining (Skehan P., et al., J. Natl. Cancer Inst. 1990, 82, 1107-1112), that of the leukaemia lines with (4,5-dimethylthiazole-2-yl)-2,5-diphenyltetrazolium (MTT) staining (Mosmann T., J. Immun. Methods 1983, 65, 55-63) and that of the primary human tumour material by ^3H-thymidine incorporation (Marshall E.S., et al., J. Natl. Cancer Inst. 1992, 84, 341-344). Primary tumour material was cultured in 96-well plates in which the wells were coated with agarose to inhibit selectively the growth of normal cells. (Marshall E.S., et al., J. Natl. Cancer Inst. 1992, 84, 341-344). Primary cultures were incubated at 37°C in sealed perspex boxes containing a humidified atmosphere of 5% CO2 and 5% O2 in nitrogen for 7 days. 5-Methyl-[^3H]-thymidine (20 Ci.mmol^-1; 0.04 µCi per well), thymidine and 5-fluorodeoxyuridine (each at final concentrations of 0.5 µM) were added in medium to cultures (20 µl per well) 24 h before terminating the cultures. Cells were aspirated on to glass fibre filters using a multiple automated sample harvester (LKB Wallac OY Beta Harvester). The filter discs were washed for 15 seconds with water, dried, and the amount of tritium retained quantified by liquid scintillation.
(§2) IC50 values were defined as in Paull K.D., et al., J. Natl. Cancer Inst. 1989, 81:1088-1092, where growth, as indicated by staining or thymidine incorporation, corresponded to 50% of that of the control cultures. […] Variances of DELTA values were expressed as standard deviations in log10 units. Comparison of DELTA values was made using Pearson correlation coefficients. Resistance factors were defined as the ratios of IC50 values between the resistant line and the parent line. Statistical evaluation was performed either with NCI programmes, with RS/1 software (BBN Research Systems, Cambridge, MA, USA), or with Sigmaplot (Jandel Scientific, San Rafael, CA, USA).
DACA was also compared in a series of 12 primary melanoma cultures. Tissue was excised from human malignant melanomas and cultured using a modified 96-well assay system in which the cells were cultured on agarose and assayed for proliferation using the ^3H-thymidine incorporation assay as described in Marshall E.S., et al., J. Natl. Cancer Inst. 1992, 84, 341-344.

The next test deals with B1A. Briefly: Resistance factor, drug-resistant Jurkat leukaemia subline. The test is classed as cell-based, human. The settings on record: B1A (from B1 by exposure to amsacrine); ratio of IC50 resistant line / parent line. The method, then:
as §1, §2
(§3) The effect of DACA on the growth of cultured cells was assessed by continuous drug exposure. […] Four multidrug-resistant cell lines, developed from JL and JB1 by in vitro exposure to increasing concentrations of doxorubicin (LD and B1D) or amsacrine (LA and B1A) (Finlay G.J., et al., J. Natl. Cancer Inst. 1990, 82, 662-667, Snow K., et al., Br. J. Cancer 1991, 63, 17-28) were tested.
(§4) DACA was compared with six other drugs including four topo II poisons, doxorubicin, mitozantrone, etopo-side and amsacrine. […]

The subject of a further test is B1D. The description is as above. The test is classed as cell-based, human. The settings on record: B1D (from B1 by exposure to doxorubicin); ratio of IC50 resistant line / parent line. The procedure:
as §1, §2, §3, §4

A further test deals with LA. The test is described as above. The test is classed as cell-based, human. The settings on record: LA (from L by exposure to amsacrine); ratio of IC50 resistant line / parent line. The method, then:
as §1, §2, §3, §4

In the next test the test system is LD. Described as above. The test is classed as cell-based, human. The settings on record: LD (from L by exposure to doxorubicin); ratio of IC50 resistant line / parent line. The method, then: as §1, §2, §3, §4
Test [4] has as its system panel of cell lines encompassing a number of tumour types. As to the kind of experiment: NCI cell line panel, growth inhibition by protein staining. The test is classed as cell-based. The settings on record: data provided by the National Cancer Institute. The procedure:
as §1, §2

For orientation: IC50 means the concentration needed to halve the response being measured. On to `COc1cc(NS(C)(=O)=O)ccc1Nc1c2ccccc2nc2ccccc12` [amsacrine], for which the IC50 in the test on human cell lines was determined as 0.76 µM; in test [3] it was 0.128 µM; in test [4], 0.52 µM. Besides, in [1], the cross-resistance entry was “more than 100 fold”. In test [2], this compound displayed a Growth delay of 2 days. In addition, the Resistance factors was determined as 240 with B1A, 8.8 with B1D, 130 with LA and 110 in the test on LD.
